ChEMBL document CHEMBL2346598, “Synthesis and pharmacological characterization of 2-(acylamino)thiophene derivatives as metabolically stable, orally effective, positive allosteric modulators of the GABAB receptor” (J Med Chem, 2013)
Blank lines part the entries; values can stand above or below the compound they belong to. Activity calls are given as the source filed them. No cut-off for these calls is given here.

How the values were obtained:
Rattus norvegicus [1] = species: Rattus norvegicus; assay: Positive allosteric modulation of GABAB receptor in rat cortical membranes assessed as potentiation of GABA-induced [35S]GTPgammaS binding after 30 mins by liquid scintillation counting analysis; type: functional, cell membranes; conditions: Membrane
Rattus norvegicus [2] = species: Rattus norvegicus; assay: Positive allosteric modulation of GABAB receptor in rat cortical membranes assessed as potentiation of GABA-induced [35S]GTPgammaS binding at 25 uM after 30 mins by liquid scintillation counting analysis relative to GABA; type: functional, cell membranes; conditions: Membrane
Rattus norvegicus [3] = species: Rattus norvegicus; assay: Positive allosteric modulation of GABAB receptor in rat cortical membranes assessed as potentiation of GABA-induced [35S]GTPgammaS binding at 2.5 uM after 30 mins by liquid scintillation counting analysis relative to GABA; type: functional, cell membranes; conditions: Membrane
NIH3T3 = assay: Cytotoxicity against mouse NIH/3T3 cells after 24 hrs by neutral red staining-based UV/visible spectrophotometric analysis; type: cell-based; conditions: NIH3T3, 24 h
Rattus norvegicus [4] = species: Rattus norvegicus; assay: Positive allosteric modulation of GABAB receptor in rat cortical membranes assessed as stimulation of [35S]GTPgammaS binding up to 100 uM after 30 mins by liquid scintillation counting analysis; type: functional, cell membranes; conditions: Membrane
Mus musculus [5] = assay: Hypnotic effect in DBA mouse assessed as reduction in pentobarbital-induced onset of loss of righting reflex at 100 mg/kg, ip incubated for 30 mins prior to pentobarbital-challenge (reference value: 60.0 +/- 0.0 min); type: functional; conditions: route intraperitoneal
Mus musculus [6] = assay: Hypnotic effect in DBA mouse assessed as potentiation of pentobarbital-induced loss of righting reflex at 300 mg/kg, ip incubated for 30 mins prior to pentobarbital-challenge; type: functional, organism-based; design: dose 300 mg/kg
Mus musculus [7] = assay: Hypnotic effect in DBA mouse assessed as reduction in pentobarbital-induced onset of loss of righting reflex at 300 mg/kg, ip incubated for 30 mins prior to pentobarbital-challenge (reference value: 60.0 +/- 0.0 min); type: functional; conditions: route intraperitoneal
Mus musculus [8] = assay: Hypnotic effect in ip dosed DBA mouse assessed as reduction in baclofen-induced onset of loss of righting reflex incubated 30 mins prior to baclofen-challenge; type: functional, organism-based
Mus musculus [9] = assay: Hypnotic effect in DBA mouse assessed as potentiation of baclofen-induced loss of righting reflex at 300 mg/kg, ip incubated for 30 mins prior to baclofen-challenge; type: functional, organism-based; design: dose 300 mg/kg
Mus musculus [10] = assay: Hypnotic effect in DBA mouse assessed as potentiation of pentobarbital-induced loss of righting reflex at 100 mg/kg, ip incubated for 30 mins prior to pentobarbital-challenge; type: functional, organism-based; design: dose 100 mg/kg
Mus musculus [11] = assay: Hypnotic effect in DBA mouse assessed as potentiation of pentobarbital-induced loss of righting reflex at 30 mg/kg, ip incubated for 30 mins prior to pentobarbital-challenge; type: functional, organism-based; design: dose 30 mg/kg
Mus musculus [12] = assay: Hypnotic effect in DBA mouse assessed as potentiation of baclofen-induced loss of righting reflex at 100 mg/kg, ip incubated for 30 mins prior to baclofen-challenge; type: functional, organism-based; design: dose 100 mg/kg
Mus musculus [13] = assay: Hypnotic effect in DBA mouse assessed as potentiation of baclofen-induced loss of righting reflex at 10 mg/kg, ip incubated for 30 mins prior to baclofen-challenge; type: functional, organism-based; design: dose 10 mg/kg
Mus musculus [14] = assay: Hypnotic effect in DBA mouse assessed as increase in pentobarbital-induced duration of loss of righting reflex at 100 mg/kg, ip incubated for 30 mins prior to pentobarbital-challenge; type: functional; conditions: route intraperitoneal
Mus musculus [15] = assay: Hypnotic effect in DBA mouse assessed as increase in baclofen-induced duration of loss of righting reflex at 300 mg/kg, ig incubated for 30 mins prior to baclofen-challenge relative to vehicle-treated control; type: functional, organism-based; design: dose 300 mg/kg
Mus musculus [16] = assay: Hypnotic effect in ip dosed DBA mouse assessed as increase in baclofen-induced duration of loss of righting reflex incubated for 30 mins prior to baclofen-challenge; type: functional, organism-based
Mus musculus [17] = assay: Hypnotic effect in DBA mouse assessed as increase in pentobarbital-induced duration of loss of righting reflex at 30 mg/kg, ip incubated for 30 mins prior to pentobarbital-challenge; type: functional; conditions: route intraperitoneal
Mus musculus [18] = assay: Hypnotic effect in DBA mouse assessed as increase in pentobarbital-induced duration of loss of righting reflex at 300 mg/kg, ip incubated for 30 mins prior to pentobarbital-challenge; type: functional; conditions: route intraperitoneal
Mus musculus [19] = assay: Hypnotic effect in DBA mouse assessed as reduction in baclofen-induced onset of loss of righting reflex at 300 mg/kg, ig incubated for 30 mins prior to baclofen-challenge relative to vehicle-treated control; type: functional, organism-based; design: dose 300 mg/kg
Mus musculus [20] = assay: Hypnotic effect in DBA mouse assessed as reduction in baclofen-induced onset of loss of righting reflex over 10 mg/kg, ip incubated for 30 mins prior to baclofen-challenge relative to vehicle-treated control; type: functional, organism-based; design: dose 10 mg/kg
Mus musculus [21] = assay: Hypnotic effect in DBA mouse assessed as increase in baclofen-induced duration of loss of righting reflex at 100 to 300 mg/kg, ip incubated for 30 mins prior to baclofen-challenge relative to vehicle-treated control; type: functional, organism-based
Mus musculus [22] = assay: Hypnotic effect in DBA mouse assessed as potentiation of baclofen-induced loss of righting reflex at 300 mg/kg, ig incubated for 30 mins prior to baclofen-challenge; type: functional, organism-based; design: dose 300 mg/kg
Rattus norvegicus [23] = species: Rattus norvegicus; assay: Positive allosteric modulation of GABAB receptor in rat cortical membranes assessed as potentiation of GABA-induced [35S]GTPgammaS binding at 10 uM after 30 mins by liquid scintillation counting analysis relative to GABA; type: functional, cell membranes; conditions: Membrane
Mus musculus [24] = assay: Hypnotic effect in DBA mouse assessed as potentiation of baclofen-induced loss of righting reflex at 30 mg/kg, ip incubated for 30 mins prior to baclofen-challenge; type: functional, organism-based; design: dose 30 mg/kg
Mus musculus [25] = assay: Hypnotic effect in DBA mouse assessed as reduction in pentobarbital-induced onset of loss of righting reflex at 30 mg/kg, ip incubated for 30 mins prior to pentobarbital-challenge (reference value: 60.0 +/- 0.0 min); type: functional; conditions: route intraperitoneal
Mus musculus [26] = assay: Hypnotic effect in DBA mouse assessed as potentiation of baclofen-induced loss of righting reflex at 3 mg/kg, ip incubated for 30 mins prior to baclofen-challenge; type: functional, organism-based; design: dose 3 mg/kg
[27] = Ratio of compound IC50 to COR628 IC50 for mouse NIH/3T3 cells; type: ADME, cell-based, NIH3T3; conditions: read-out: Ratio IC50
[28] = Ratio of compound IC50 to COR627 IC50 for mouse NIH/3T3 cells; type: ADME, cell-based, NIH3T3; conditions: read-out: Ratio IC50

Activity (Rattus norvegicus [1]): inactive
Activity (Rattus norvegicus [2]): 12%
Activity (Rattus norvegicus [3]): -5.6%
Activity (Rattus norvegicus [4]): inactive
Structure (SMILES): COC(=O)c1c(NC(=O)C2CCCCC2)sc2c1CCCC2
IC50 (NIH3T3): 62 µM

Activity (Rattus norvegicus [1]): inactive
Activity (Rattus norvegicus [4]): inactive
Structure (SMILES): CCCOC(=O)c1c(NC(=O)c2ccc(Cl)cc2)sc(C)c1CC

Activity (Rattus norvegicus [1]): inactive
Activity (Rattus norvegicus [2]): 12%
Activity (Rattus norvegicus [3]): 3.1%
Activity (Rattus norvegicus [4]): inactive
Structure (SMILES): CCc1c(C)sc(NC(=O)c2ccccc2)c1C(=O)OC
IC50 (NIH3T3): 66 µM

Activity (Rattus norvegicus [1]): inactive
Activity (Rattus norvegicus [4]): inactive
Structure (SMILES): CCc1c(C)sc(NC(=O)c2ccc(-c3cccnc3)cc2)c1C(=O)OC

Activity (Rattus norvegicus [1]): inactive
Activity (Rattus norvegicus [4]): inactive
Structure (SMILES): CCc1c(C)sc(NC(C)=O)c1C(=O)OC

Structure (SMILES): CCc1c(C)sc(NC(=O)C23CC4CC(CC(C4)C2)C3)c1C(=O)OC
Activity (Rattus norvegicus [2]): 22%
Activity (Rattus norvegicus [3]): 9.2%
IC50 (NIH3T3): 32 µM

Activity (Rattus norvegicus [1]): inactive
Activity (Rattus norvegicus [4]): inactive
Structure (SMILES): COC(=O)c1c(NC(=O)c2ccccc2)sc2c1CCCC2

Activity (Rattus norvegicus [1]): inactive
Activity (Rattus norvegicus [4]): inactive
Structure (SMILES): COc1ccc(C(=O)Nc2sc3c(c2C#N)CCCC3)cc1OC

Activity (Rattus norvegicus [1]): inactive
Activity (Rattus norvegicus [2]): 5.9%
Activity (Rattus norvegicus [3]): 2.9%
Activity (Rattus norvegicus [4]): inactive
Structure (SMILES): CCc1c(C)sc(NS(=O)(=O)c2ccccc2)c1C(=O)OC
IC50 (NIH3T3): 146 µM

Activity (Rattus norvegicus [23]): 59%
Structure (SMILES): CSc1nc(NC2CCCC2)c([N+](=O)[O-])c(NC2CCCC2)n1 [GS-39783]
Time (Mus musculus [5]): 60 min
Activity (Mus musculus [6]): Active
Time (Mus musculus [7]): 57.3 min
Activity (Mus musculus [8]): Dose-dependent effect
Activity (Mus musculus [9]): Active
Activity (Mus musculus [10]): inactive
Activity (Mus musculus [11]): inactive
Activity (Mus musculus [12]): Active
Activity (Mus musculus [13]): Active
Time (Mus musculus [14]): 0 min
Activity (Mus musculus [15]): Active
Activity (Mus musculus [16]): Dose-dependent effect
Time (Mus musculus [17]): 0 min
Time (Mus musculus [18]): 2.3 min
IC50 (NIH3T3): 60 µM
Activity (Mus musculus [19]): Active
Activity (Mus musculus [20]): Active
Activity (Mus musculus [21]): Active
Activity (Mus musculus [22]): Active
Activity (Mus musculus [24]): Active
Time (Mus musculus [25]): 60 min
Activity (Mus musculus [26]): inactive

Activity (Rattus norvegicus [1]): inactive
Activity (Rattus norvegicus [4]): inactive
Structure (SMILES): COC(=O)c1ccsc1NC(=O)c1ccc(Cl)cc1

Activity (Rattus norvegicus [1]): inactive
Activity (Rattus norvegicus [4]): inactive
Structure (SMILES): N#Cc1c(NC(=O)C2CCCCC2)sc2c1CCCC2
selectivity ratio [27]: 4
selectivity ratio [28]: 4

Activity (Rattus norvegicus [1]): inactive
Activity (Rattus norvegicus [4]): inactive
Structure (SMILES): CCc1c(C)sc(NC(=O)c2ccc(I)cc2)c1C(=O)OC

Activity (Rattus norvegicus [1]): inactive
Activity (Rattus norvegicus [2]): 12.1%
Activity (Rattus norvegicus [3]): 3%
Activity (Rattus norvegicus [4]): inactive
Structure (SMILES): CCc1c(C)sc(NC(=O)C2CCCC2)c1C(=O)OC
IC50 (NIH3T3): 34 µM

Activity (Rattus norvegicus [1]): inactive
Activity (Rattus norvegicus [4]): inactive
Structure (SMILES): CCc1c(C)sc(NC(=O)c2ccc([N+](=O)[O-])cc2)c1C(=O)OC

Activity (Rattus norvegicus [2]): 15.1%
Activity (Rattus norvegicus [3]): 2%
Structure (SMILES): CCc1c(C)sc(NC(=O)C2CCCCC2)c1C(=O)OC
IC50 (NIH3T3): 33 µM

Structure (SMILES): Cc1ncc(-c2ccc(C(F)(F)F)cc2)c(N[C@@H]2C[C@H]3CC[C@@H]2C3)n1
IC50 (NIH3T3): 35 µM
